In ChEMBL document CHEMBL1201862, “PubChem BioAssay data set” (2004):
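In this assay, cells in 96-well plates receive the compound at five concentrations for 48 hours. Endpoints are linearly interpolated between the surrounding concentrations. GI50 marks 50% less growth.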 Calls of active or inactive are those of the source. No stated cut-off is given here; in the data, active = GI50 up to about 1.1 µM and inactive = higher.

Assays:
Experiment in all cases: NCI-60 cell line screen, 48 h
[1] = tested on: SK-OV-3
[2] = tested on: K562
[3] = tested on: 786-0
[4] = tested on: SN12C
[5] = tested on: RXF 393
[6] = tested on: NCI-H23
[7] = tested on: HCC 2998
[8] = tested on: OVCAR-8
[9] = tested on: COLO 205
[10] = tested on: MOLT-4
[11] = tested on: IGROV-1
[12] = tested on: HL-60
[13] = tested on: CCRF-CEM
[14] = tested on: KM12
[15] = tested on: CAKI-1
[16] = tested on: HCT-15
[17] = tested on: HOP-62
[18] = tested on: SK-MEL-28
[19] = tested on: SNB-75
[20] = tested on: T47D
[21] = tested on: SF-268
[22] = tested on: HT-29
[23] = tested on: MDA-MB-231
[24] = tested on: EKVX
[25] = tested on: RPMI-8226
[26] = tested on: DU-145
[27] = tested on: Malme-3M
[28] = tested on: PC-3
[29] = tested on: SW-620
[30] = tested on: A549
[31] = tested on: TK-10
[32] = tested on: SK-MEL-5
[33] = tested on: MDA-N
[34] = tested on: MCF7
[35] = tested on: UACC-62
[36] = tested on: M14
[37] = tested on: UACC-257
[38] = tested on: LOX IMVI
[39] = tested on: SF-295
[40] = tested on: SR

| SMILES | GI50 [1] | GI50 [2] | GI50 [3] | GI50 [4] | GI50 [5] | GI50 [6] | GI50 [7] | GI50 [8] | GI50 [9] | GI50 [10] | GI50 [11] | GI50 [12] | GI50 [13] | GI50 [14] | GI50 [15] | GI50 [16] [µM] | GI50 [17] | GI50 [18] | GI50 [19] | GI50 [20] | also measured |
| --- | --- | --- | --- | --- | --- | --- | --- | --- | --- | --- | --- | --- | --- | --- | --- | --- | --- | --- | --- | --- | --- |
| CCN(CC)CCC/N=c1\c2cc(OC)ccc2[nH]c2c([N+](=O)[O-])ccc(NCCCN(CC)CC)c12 | 3.08 µM (inactive) | 1.77 µM (inactive) | 1.45 µM (inactive) | 2.04 µM (inactive) | 1.95 µM (inactive) | 2.26 µM (inactive) | 1.49 µM (inactive) | 1.03 µM (active) | 5.13 µM (inactive) | 0.484 µM (active) | 3.42 µM (inactive) | 0.3 µM (active) | 0.479 µM (active) | 1.52 µM (inactive) | 9.66 µM (inactive) | 1.43 | 4.47 µM (inactive) | > 10 µM (inactive) | > 10 µM (inactive) | > 10 µM (inactive) | GI50 [21]: 2.87 µM (inactive); GI50 [22]: 1.6 µM (inactive); GI50 [23]: 1.49 µM (inactive); GI50 [24]: 3.97 µM (inactive); GI50 [25]: 1.72 µM (inactive); GI50 [26]: 5.13 µM (inactive); GI50 [27]: > 10 µM (inactive); GI50 [28]: 1.47 µM (inactive); GI50 [29]: 1.69 µM (inactive); GI50 [30]: 1.78 µM (inactive); GI50 [31]: 8.24 µM (inactive); GI50 [32]: 9.42 µM (inactive); GI50 [33]: 5.77 µM (inactive); GI50 [34]: 1.54 µM (inactive); GI50 [35]: > 10 µM (inactive); GI50 [36]: > 10 µM (inactive); GI50 [37]: > 10 µM (inactive); GI50 [38]: 1.34 µM (inactive) |
| COc1ccc(C(=O)/C=C/c2ccc(OCC(=O)N3CCN(c4ccccc4)CC3)cc2)cc1OC | 6.07 µM (inactive) | 3.14 µM (inactive) | 5.31 µM (inactive) | 4.82 µM (inactive) | 1.83 µM (inactive) | 2.05 µM (inactive) | 5.3 µM (inactive) | 4.29 µM (inactive) | > 10 µM (inactive) | 2.34 µM (inactive) | 9.38 µM (inactive) | 2.88 µM (inactive) | 2.52 µM (inactive) | 4.15 µM (inactive) | 5.28 µM (inactive) | 4.84 | 4.46 µM (inactive) | 6.68 µM (inactive) | 3.72 µM (inactive) | 5.89 µM (inactive) | GI50 [39]: 6.3 µM (inactive); GI50 [40]: 2.18 µM (inactive); GI50 [21]: 3.39 µM (inactive); GI50 [22]: 4.07 µM (inactive); GI50 [23]: 4.69 µM (inactive); GI50 [24]: 7.01 µM (inactive); GI50 [25]: 3.33 µM (inactive); GI50 [26]: 1.42 µM (inactive); GI50 [27]: 5.96 µM (inactive); GI50 [28]: 3.56 µM (inactive); GI50 [29]: 5.73 µM (inactive); GI50 [30]: 5.36 µM (inactive); GI50 [31]: > 10 µM (inactive); GI50 [32]: 4.52 µM (inactive); GI50 [33]: 3.21 µM (inactive); GI50 [34]: 2.9 µM (inactive); GI50 [35]: 5.58 µM (inactive); GI50 [36]: 6.28 µM (inactive); GI50 [37]: 3.37 µM (inactive) |
